From paper PMC10970923, “In Vitro Evaluation of Essential Oils and Saturated Fatty Acids for Repellency against the Old-World Sand Fly, Phlebotomus papatasi (Scopoli) (Diptera: Psychodidae)” (Insects, 2024)
Read-outs that look alike come from different tables or passages of the source.

Molecular target: T1, rPpAChE1 (recombinant acetylcholinesterase of P. papatasi) (Phlebotomus papatasi, UniProt M1F887)
T1 construct: gene AChE
Experiment: residual AChE activity from initial velocities
Assay type: biochemical
Text: residual AChE activity from initial velocities on rPpAChE1 (recombinant acetylcholinesterase of P. papatasi)

T1 sequence (M1F887 41-710): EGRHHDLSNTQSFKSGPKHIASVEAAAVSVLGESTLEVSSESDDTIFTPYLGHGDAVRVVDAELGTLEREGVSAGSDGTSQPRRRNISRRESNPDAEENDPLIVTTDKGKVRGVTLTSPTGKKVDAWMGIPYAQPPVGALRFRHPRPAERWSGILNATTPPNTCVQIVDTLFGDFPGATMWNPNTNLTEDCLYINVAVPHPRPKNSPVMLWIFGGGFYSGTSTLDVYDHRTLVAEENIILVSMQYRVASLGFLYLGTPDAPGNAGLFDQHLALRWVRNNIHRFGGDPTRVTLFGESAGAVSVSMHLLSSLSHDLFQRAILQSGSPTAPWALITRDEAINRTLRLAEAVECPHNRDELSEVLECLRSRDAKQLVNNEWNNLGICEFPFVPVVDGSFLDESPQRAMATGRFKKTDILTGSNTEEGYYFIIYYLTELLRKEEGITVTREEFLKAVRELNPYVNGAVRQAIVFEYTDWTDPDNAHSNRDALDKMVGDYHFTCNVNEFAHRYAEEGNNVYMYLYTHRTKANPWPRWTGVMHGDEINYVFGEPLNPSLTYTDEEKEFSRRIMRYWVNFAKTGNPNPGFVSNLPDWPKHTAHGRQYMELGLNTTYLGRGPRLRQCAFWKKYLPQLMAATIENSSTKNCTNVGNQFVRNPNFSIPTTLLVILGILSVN

SMILES: CCCCCCCCCCC(=O)O [Undecanoic acid]
- remaining activity at 1000 µM (read-out: % Residual rPpAChE1 Activity (Compared to No Inhibitor) ± Std. Dev. ^* / Undecanoic Acid): 98.2 ± 0.4%

SMILES: CCN(CC)C(=O)c1cccc(C)c1 [DEET, N,N-diethyl-m-toluamide]
- remaining activity at 1000 µM (read-out: % Residual rPpAChE1 Activity (Compared to No Inhibitor) ± Std. Dev. ^* / DEET): 93.2 ± 1.4%

SMILES: CCCCN(CCC(=O)OCC)C(C)=O [IR3535]
- remaining activity at 1000 µM (read-out: % Residual rPpAChE1 Activity (Compared to No Inhibitor) ± Std. Dev. ^* / IR3535): 104 ± 5%

SMILES: CCCCCCCCC(=O)O [Nonanoic acid]
- remaining activity at 1000 µM (read-out: % Residual rPpAChE1 Activity (Compared to No Inhibitor) ± Std. Dev. ^* / Nonanoic Acid): 96 ± 2.3%
